Test system: Tfh cells (via P2X7)
Test: Epithelial permeability to ATP: Tfh cell recovery in Peyer's patches after daily gavage
Format: in vivo
Details: wild type mice, two weeks after treatment
Description: In order to assess epithelial permeability to ATP in the small intestine, mice were gavaged daily with ATPγS (a non-hydrolysable analogue of ATP). As Tfh cells are sensitive to extracellular ATP via P2X7 the inventors analysed Tfh cell recovery in Peyer's patches two weeks after treatment.

In the case of `Nc1ncnc2c1ncn2[C@@H]1O[C@H](COP(=O)(O)OP(=O)(O)OP(O)(O)=S)[C@@H](O)[C@H]1O` [ATPγS], the “Tfh cells in Peyer's patches” value was “significant reduction”.
